# Square brackets hold non-standard residues; d marks the D form. Peptide text beside a SMILES is read from it. * marks the point of attachment. Pro(4S-NH2) = N[C@@H]1CN[C@H](C(=O)O)C1; Phe(3-F) = N[C@@H](Cc1cccc(F)c1)C(=O)O; Phe(4-F) = N[C@@H](Cc1ccc(F)cc1)C(=O)O; Phe(2-F) = N[C@@H](Cc1ccccc1F)C(=O)O; Arg(Me) = CNC(=N)NCCC[C@H](N)C(=O)O; Dap(CONH2) = NC(=O)NC[C@H](N)C(=O)O; Hyp = O=C(O)[C@@H]1C[C@@H](O)CN1; dNMeF = CN[C@H](Cc1ccccc1)C(=O)O; Aib = CC(C)(N)C(=O)O; Glycolyl = O=C(CO)*; Bn = c1ccc(C*)cc1; azaGly = NNC(=O)O
# Target: T1, hOT7T175 (Homo sapiens, UniProt Q969F8)
# T1 construct: expressed in transfected cells
# Test: Assay for intracellular Ca ion level-increasing activity using FLIPR
# Type: cell-based
# Conditions: hOT7T175/CHO cells, relative to Metastin (1-54)
# How it was run: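 CHO/dhfr− cells stably transfected with hOT7T175, selected for high metastin response, loaded with Fluo3-AM for 1 h at 37 °C in HANKS/HBSS (pH 7.4) with probenecid. Peptides were diluted from 1×10^−3 M DMSO stock into HANKS/HBSS with 2.5 mM probenecid, 0.2% BSA, 0.1% CHAPS; intracellular Ca rise read by FLIPR.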
# T1 sequence (Q969F8 whole entry L364H): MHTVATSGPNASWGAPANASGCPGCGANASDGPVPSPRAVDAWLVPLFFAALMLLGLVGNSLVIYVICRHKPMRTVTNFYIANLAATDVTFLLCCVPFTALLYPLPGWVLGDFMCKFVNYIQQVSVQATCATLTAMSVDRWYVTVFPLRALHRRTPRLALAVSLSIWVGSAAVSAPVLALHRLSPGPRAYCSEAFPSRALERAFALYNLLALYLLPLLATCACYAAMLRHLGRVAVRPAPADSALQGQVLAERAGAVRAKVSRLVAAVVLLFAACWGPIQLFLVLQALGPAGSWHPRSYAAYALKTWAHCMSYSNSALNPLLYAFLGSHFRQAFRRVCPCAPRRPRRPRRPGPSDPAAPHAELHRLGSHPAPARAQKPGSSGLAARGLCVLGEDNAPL
row,SMILES,Specific Activity: intracellular Ca ion level-increasing activity [specific activity to Metastin (1-54)]
1,"CNC(=N)NCCC[C@H](NC(=O)[C@H](CC(C)C)NC(=O)NNC(=O)[C@H](Cc1ccccc1)NC(=O)[C@@H](NC(=O)[C@H](CC(N)=O)NC(=O)[C@@H]1C[C@@H](O)CN1C(=O)[C@@H](Cc1ccc(O)cc1)NC(=O)CO)[C@@H](C)O)C(=O)N[C@@H](Cc1c[nH]c2ccccc12)C(N)=O [Compound No. 776, Glycoloyl-D-Tyr-Hyp-Asn-Thr-Phe-AzaGly-Leu-Arg(Me)-Trp-NH2] (Glycolyl-[dY][Hyp]NTF[azaGly]L[Arg(Me)]W-NH2)",1.5
2,"CNC(=N)NCCC[C@H](NC(=O)[C@H](CC(C)C)NC(=O)NNC(=O)[C@H](Cc1ccccc1)NC(=O)[C@@H](NC(=O)[C@H](CC(N)=O)NC(=O)[C@@H](Cc1ccc(O)cc1)NC(C)=O)[C@@H](C)O)C(=O)N[C@@H](Cc1c[nH]c2ccccc12)C(N)=O [Compound No. 777, Ac-D-Tyr-Asn-Thr-Phe-AzaGly-Leu-Arg(Me)-Trp-NH2] (Ac-[dY]NTF[azaGly]L[Arg(Me)]W-NH2)",1.8
3,"CNC(=N)NCCC[C@H](NC(=O)[C@H](CC(C)C)NC(=O)NNC(=O)[C@H](Cc1ccccc1)NC(=O)[C@@H](NC(=O)[C@H](CC(N)=O)NC(=O)[C@@H]1C[C@H](N)CN1C(=O)[C@@H](Cc1ccc(O)cc1)NC(C)=O)[C@@H](C)O)C(=O)N[C@@H](Cc1c[nH]c2ccccc12)C(N)=O [Compound No. 780, Ac-D-Tyr-Pro(4NH2)-Asn-Thr-Phe-AzaGly-Leu-Arg(Me)-Trp-NH2] (Ac-[dY][Pro(4S-NH2)]NTF[azaGly]L[Arg(Me)]W-NH2)",2.1
4,"CNC(=N)NCCC[C@H](NC(=O)[C@H](CC(C)C)NC(=O)NNC(=O)[C@H](Cc1ccccc1)NC(=O)[C@@H](NC(=O)[C@H](CC(N)=O)NC(=O)[C@@H]1C[C@@H](OCc2ccccc2)CN1C(=O)[C@@H](Cc1ccc(O)cc1)NC(C)=O)[C@@H](C)O)C(=O)N[C@@H](Cc1c[nH]c2ccccc12)C(N)=O [Compound No. 781, Ac-D-Tyr-Hyp(Bzl)-Asn-Thr-Phe-AzaGly-Leu-Arg(Me)-Trp-NH2] (Ac-[dY][Hyp](Bn)NTF[azaGly]L[Arg(Me)]W-NH2)",1.0
5,"CNC(=N)NCCC[C@H](NC(=O)[C@H](CC(C)C)NC(=O)NNC(=O)[C@H](Cc1ccccc1)NC(=O)[C@@H](NC(=O)[C@H](CC(N)=O)NC(=O)[C@@H](Cc1ccccc1)N(C)C(=O)[C@@H](Cc1ccc(O)cc1)NC(C)=O)[C@@H](C)O)C(=O)N[C@@H](Cc1c[nH]c2ccccc12)C(N)=O [Compound No. 782, Ac-D-Tyr-D-NMePhe-Asn-Thr-Phe-AzaGly-Leu-Arg(Me)-Trp-NH2] (Ac-[dY][dNMeF]NTF[azaGly]L[Arg(Me)]W-NH2)",1.8
6,"CNC(=N)NCCC[C@H](NC(=O)[C@H](CC(C)C)NC(=O)NNC(=O)[C@H](Cc1ccccc1F)NC(=O)[C@@H](NC(=O)[C@H](CC(N)=O)NC(=O)CNC(=O)[C@@H](Cc1ccc(O)cc1)NC(C)=O)[C@@H](C)O)C(=O)N[C@@H](Cc1c[nH]c2ccccc12)C(N)=O [Compound No. 783, Ac-D-Tyr-Gly-Asn-Thr-Phe(2F)-AzaGly-Leu-Arg(Me)-Trp-NH2] (Ac-[dY]GNT[Phe(2-F)][azaGly]L[Arg(Me)]W-NH2)",8.8
7,"CNC(=N)NCCC[C@H](NC(=O)[C@H](CC(C)C)NC(=O)NNC(=O)[C@H](Cc1ccccc1F)NC(=O)[C@@H](NC(=O)[C@H](CC(N)=O)NC(=O)C(C)(C)NC(=O)[C@@H](Cc1ccc(O)cc1)NC(C)=O)[C@@H](C)O)C(=O)N[C@@H](Cc1c[nH]c2ccccc12)C(N)=O [Compound No. 784, Ac-D-Tyr-Aib-Asn-Thr-Phe(2F)-AzaGly-Leu-Arg(Me)-Trp-NH2] (Ac-[dY][Aib]NT[Phe(2-F)][azaGly]L[Arg(Me)]W-NH2)",3.4
8,"CNC(=N)NCCC[C@H](NC(=O)[C@H](CC(C)C)NC(=O)NNC(=O)[C@H](Cc1cccc(F)c1)NC(=O)[C@@H](NC(=O)[C@H](CC(N)=O)NC(=O)CNC(=O)[C@@H](Cc1ccc(O)cc1)NC(C)=O)[C@@H](C)O)C(=O)N[C@@H](Cc1c[nH]c2ccccc12)C(N)=O [Compound No. 785, Ac-D-Tyr-Gly-Asn-Thr-Phe(3F)-AzaGly-Leu-Arg(Me)-Trp-NH2] (Ac-[dY]GNT[Phe(3-F)][azaGly]L[Arg(Me)]W-NH2)",3.2
9,"CNC(=N)NCCC[C@H](NC(=O)[C@H](CC(C)C)NC(=O)NNC(=O)[C@H](Cc1cccc(F)c1)NC(=O)[C@@H](NC(=O)[C@H](CC(N)=O)NC(=O)C(C)(C)NC(=O)[C@@H](Cc1ccc(O)cc1)NC(C)=O)[C@@H](C)O)C(=O)N[C@@H](Cc1c[nH]c2ccccc12)C(N)=O [Compound No. 786, Ac-D-Tyr-Aib-Asn-Thr-Phe(3F)-AzaGly-Leu-Arg(Me)-Trp-NH2] (Ac-[dY][Aib]NT[Phe(3-F)][azaGly]L[Arg(Me)]W-NH2)",3.3
10,"CNC(=N)NCCC[C@H](NC(=O)[C@H](CC(C)C)NC(=O)NNC(=O)[C@H](Cc1ccc(F)cc1)NC(=O)[C@@H](NC(=O)[C@H](CC(N)=O)NC(=O)[C@@H]1C[C@@H](O)CN1C(=O)[C@@H](Cc1ccc(O)cc1)NC(C)=O)[C@@H](C)O)C(=O)N[C@@H](Cc1c[nH]c2ccccc12)C(N)=O [Compound No. 787, Ac-D-Tyr-Hyp-Asn-Thr-Phe(4F)-AzaGly-Leu-Arg(Me)-Trp-NH2] (Ac-[dY][Hyp]NT[Phe(4-F)][azaGly]L[Arg(Me)]W-NH2)",2.3
11,"CNC(=N)NCCC[C@H](NC(=O)[C@H](CC(C)C)NC(=O)NNC(=O)[C@H](Cc1ccc(F)cc1)NC(=O)[C@@H](NC(=O)[C@H](CC(N)=O)NC(=O)[C@H](CCC(=O)O)NC(=O)[C@@H](Cc1ccc(O)cc1)NC(C)=O)[C@@H](C)O)C(=O)N[C@@H](Cc1c[nH]c2ccccc12)C(N)=O [Compound No. 788, Ac-D-Tyr-Glu-Asn-Thr-Phe(4F)-AzaGly-Leu-Arg(Me)-Trp-NH2] (Ac-[dY]ENT[Phe(4-F)][azaGly]L[Arg(Me)]W-NH2)",2.7
12,"CNC(=N)NCCC[C@H](NC(=O)[C@H](CC(C)C)NC(=O)NNC(=O)[C@H](Cc1ccc(F)cc1)NC(=O)[C@@H](NC(=O)[C@H](CC(N)=O)NC(=O)[C@H](CCCCN)NC(=O)[C@@H](Cc1ccc(O)cc1)NC(C)=O)[C@@H](C)O)C(=O)N[C@@H](Cc1c[nH]c2ccccc12)C(N)=O [Compound No. 789, Ac-D-Tyr-Lys-Asn-Thr-Phe(4F)-AzaGly-Leu-Arg(Me)-Trp-NH2] (Ac-[dY]KNT[Phe(4-F)][azaGly]L[Arg(Me)]W-NH2)",3.4
13,"CNC(=N)NCCC[C@H](NC(=O)[C@H](CC(C)C)NC(=O)NNC(=O)[C@H](Cc1ccc(F)cc1)NC(=O)[C@@H](NC(=O)[C@H](CC(N)=O)NC(=O)CNC(=O)[C@@H](Cc1ccc(O)cc1)NC(C)=O)[C@@H](C)O)C(=O)N[C@@H](Cc1c[nH]c2ccccc12)C(N)=O [Compound No. 790, Ac-D-Tyr-Gly-Asn-Thr-Phe(4F)-AzaGly-Leu-Arg(Me)-Trp-NH2] (Ac-[dY]GNT[Phe(4-F)][azaGly]L[Arg(Me)]W-NH2)",2.3
14,"CNC(=N)NCCC[C@H](NC(=O)[C@H](CC(C)C)NC(=O)NNC(=O)[C@H](Cc1ccc(F)cc1)NC(=O)[C@@H](NC(=O)[C@H](CC(N)=O)NC(=O)C(C)(C)NC(=O)[C@@H](Cc1ccc(O)cc1)NC(C)=O)[C@@H](C)O)C(=O)N[C@@H](Cc1c[nH]c2ccccc12)C(N)=O [Compound No. 791, Ac-D-Tyr-Aib-Asn-Thr-Phe(4F)-AzaGly-Leu-Arg(Me)-Trp-NH2] (Ac-[dY][Aib]NT[Phe(4-F)][azaGly]L[Arg(Me)]W-NH2)",2.9
15,"CNC(=N)NCCC[C@H](NC(=O)[C@H](CC(C)C)NC(=O)NNC(=O)[C@@H](Cc1ccccc1)NC(=O)[C@@H](NC(=O)[C@H](CC(N)=O)NC(=O)[C@@H]1C[C@@H](O)CN1C(=O)[C@@H](Cc1ccc(O)cc1)NC(C)=O)[C@@H](C)O)C(=O)N[C@@H](Cc1c[nH]c2ccccc12)C(N)=O [Compound No. 794, Ac-D-Tyr-Hyp-Asn-Thr-D-Phe-AzaGly-Leu-Arg(Me)-Trp-NH2] (Ac-[dY][Hyp]NT[dF][azaGly]L[Arg(Me)]W-NH2)",2.3
16,"CC(=O)N[C@H](Cc1ccc(O)cc1)C(=O)N1C[C@H](O)C[C@H]1C(=O)N[C@@H](CC(N)=O)C(=O)N[C@H](C(=O)N[C@@H](Cc1ccccc1)C(=O)NNC(=O)N[C@@H](CC(C)C)C(=O)N[C@@H](CCCNC(=N)N)C(=O)N[C@@H](Cc1c[nH]c2ccccc12)C(N)=O)[C@@H](C)O [Compound No. 797, Ac-D-Tyr-Hyp-Asn-Thr-Phe-AzaGly-Leu-Arg-Trp-NH2] (Ac-[dY][Hyp]NTF[azaGly]LRW-NH2)",1.4
17,"CNC(=N)NCCC[C@H](NC(=O)[C@H](CC(C)C)NC(=O)NNC(=O)[C@H](Cc1ccccc1)NC(=O)[C@@H](NC(=O)[C@H](CNC(N)=O)NC(=O)[C@@H]1C[C@@H](O)CN1C(=O)[C@@H](Cc1ccc(O)cc1)NC(C)=O)[C@@H](C)O)C(=O)N[C@@H](Cc1c[nH]c2ccccc12)C(N)=O [Compound No. 800, Ac-D-Tyr-Hyp-Alb-Thr-Phe-AzaGly-Leu-Arg(Me)-Trp-NH2] (Ac-[dY][Hyp][Dap(CONH2)]TF[azaGly]L[Arg(Me)]W-NH2)",0.8
18,"CNC(=N)NCCC[C@H](NC(=O)[C@H](CC(C)C)NC(=O)NNC(=O)[C@H](Cc1ccccc1)NC(=O)c1ccc(CN(Cc2ccccn2)Cc2ccccn2)cc1)C(=O)N[C@@H](Cc1c[nH]c2ccccc12)C(N)=O [Compound No. 801, 4-[Bis-(2-Pyridylmethyl)aminomethyl]benzoyl-Phe-AzaGly-Leu-Arg(Me)-Trp-NH2]",11.1
